For 27 compounds, IC50 results are on record in patent publication US10010539B2, “Pyrazole, triazole and tetrazole orexin receptor antagonists” (MERCK SHARP & DOHME CORP., priority 2014, dated 2018).

The target in assay [1] is hOXIR (orexin-1 receptor) (Homo sapiens, UniProt O43613). In words: FLIPR Ca2+ Flux Assay, orexin-1 receptor (hOXIR FLIPR). It is filed as cell-based. The settings on record: CHO cells expressing the orexin-1 receptor (method text: rat; table head: hOXIR); agonist 70 pM Ala-6,12 human orexin-A. The method in brief:
(§1)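 Steps: Fluo-4AM loading of CHO cells (rat OX1R or human OX2R) for 60 min at 37 °C; 5 min compound preincubation; addition of Ala-6,12 orexin-A at 70 pM final; 5 min fluorescence recording. Antagonist IC50 is derived from peak heights against the uninhibited agonist response.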

Assay [2] deals with human orexin-2 receptor (Homo sapiens (Human), UniProt O43614). Description: FLIPR Ca2+ Flux Assay, orexin-2 receptor (hOX2R FLIPR). The settings on record: CHO cells expressing the human orexin-2 receptor; agonist 70 pM Ala-6,12 human orexin-A. The assay is classed as cell-based. An outline of the steps:
as §1
In general terms: Calcium flux is commonly read through the fluorescence of an indicator in the cells.

human orexin-2 receptor, sequence (O43614 whole entry): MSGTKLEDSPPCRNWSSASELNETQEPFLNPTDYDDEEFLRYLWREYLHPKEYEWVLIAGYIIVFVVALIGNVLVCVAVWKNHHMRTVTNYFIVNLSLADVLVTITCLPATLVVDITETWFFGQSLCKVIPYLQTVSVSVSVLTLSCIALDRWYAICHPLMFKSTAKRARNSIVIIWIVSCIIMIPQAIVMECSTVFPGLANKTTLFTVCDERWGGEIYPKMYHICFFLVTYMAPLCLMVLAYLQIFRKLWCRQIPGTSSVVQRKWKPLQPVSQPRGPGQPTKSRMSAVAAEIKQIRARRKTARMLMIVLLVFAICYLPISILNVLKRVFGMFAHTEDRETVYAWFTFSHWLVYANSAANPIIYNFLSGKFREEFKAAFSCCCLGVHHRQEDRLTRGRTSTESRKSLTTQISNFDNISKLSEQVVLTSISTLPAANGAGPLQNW

For `C[C@@H]1CC[C@@H](n2ncc(C(C)(C)O)n2)CN1C(=O)c1ccccc1C1CC1` [Example 6, (2-Cyclopropylphenyl)((2R,5R)-5-(4-(2-hydroxypropan-2-yl)-2H-1,2,3-triazol-2-yl)-2-methylpiperidin-1-yl)methanone], the IC50 (commonly the point on the concentration scale where inhibition reaches its midpoint) in assay [1] worked out at 2.46 µM; in assay [2] it was 0.0149 µM.

Take `C[C@@H]1CC[C@@H](n2ncc([C@@H](O)C(F)(F)F)n2)CN1C(=O)c1ccccc1-n1nccn1` [Example 27, (2-(2H-1,2,3-triazol-2-yl)phenyl)((2R,5R)-2-methyl-5-(4-((R)-2,2,2-trifluoro-1-hydroxyethyl)-2H-1,2,3-triazol-2-yl)piperidin-1-yl)methanone]: the IC50 in assay [1] is 0.505 µM; in assay [2] it was 0.0179 µM.

Consider `Cc1nn([C@@H]2CC[C@@H](C)N(C(=O)c3cccnc3-c3ccccc3)C2)nc1C(C)(C)O` [Example 73, 2-(5-Methyl-2-{(3R,6R)-6-methyl-1-[(2-phenylpyridin-3-yl)carbonyl]piperidin-3-yl}-2H-1,2,3-triazol-4-yl)propan-2-ol], for which the values for the IC50 in assay [1] and in assay [2] were 2.46 µM and 0.0174 µM, respectively.

Turning to `Cc1nn([C@@H]2CC[C@@H](C)N(C(=O)c3ccccc3C3CC3)C2)nc1C(C)(C)O` [Example 70, 2-(2-{(3R,6R)-1-[(2-Cyclopropylphenyl)carbonyl]-6-methylpiperidin-3-yl}-5-methyl-2H-1,2,3-triazol-4-yl)propan-2-ol], the IC50 in assay [1] is 0.76 µM; in assay [2], 0.0088 µM.

Consider `Cc1nn([C@@H]2CC[C@@H](C)N(C(=O)c3ccccc3OC(F)(F)F)C2)nc1C(C)(C)O` [Example 67, 2-{5-Methyl-2-[(3R,6R)-6-methyl-1-{[2-(trifluoromethoxy)phenyl]carbonyl}piperidin-3-yl]-2H-1,2,3-triazol-4-yl}propan-2-ol], for which the IC50 in assay [1] was found to be 1.15 µM; in assay [2], 0.0101 µM.

With `C[C@@H]1CC[C@@H](n2cc(C(C)(C)O)cn2)CN1C(=O)c1ccccc1OC(F)(F)F` [Example 83, 2-{1-[(3R,6R)-6-Methyl-1-{[2-(trifluoromethoxy)phenyl]carbonyl}piperidin-3-yl]-1H-pyrazol-4-yl}propan-2-ol], the IC50 was above 10 µM in assay [1] and 0.0314 µM in assay [2].

With `C[C@@H]1CC[C@@H](n2cc(C(C)(C)O)cn2)CN1C(=O)c1cccnc1OCC(F)F` [Example 98, 2-{1-[(3R,6R)-1-{[2-(2,2-Difluoroethoxy)pyridin-3-yl]carbonyl}-6-methylpiperidin-3-yl]-1H-pyrazol-4-yl}propan-2-ol], the IC50 was above 10 µM in assay [1] and 0.0588 µM in assay [2].

As to `C[C@@H]1CC[C@@H](n2ncc(C(C)(C)O)n2)CN1C(=O)c1ccccc1-c1ccccc1` [Example 2, [1,1′-Biphenyl]-2-yl((2R,5R)-5-(4-(2-hydroxypropan-2-yl)-2H-1,2,3-triazol-2-yl)-2-methylpiperidin-1-yl)methanone], the half-inhibitory concentration (IC50) is 0.483 µM in assay [1] and 0.0162 µM in assay [2].

In the case of `C[C@@H]1CC[C@@H](n2ncc(C(C)(C)O)n2)CN1C(=O)c1ccccc1-n1nccn1` [Example 25, (2-(2H-1,2,3-triazol-2-yl)phenyl)((2R,5R)-5-(4-(2-hydroxypropan-2-yl)-2H-1,2,3-triazol-2-yl)-2-methylpiperidin-1-yl)methanone], the figures for the IC50 in assay [1] and in assay [2] were 0.594 µM and 0.0075 µM, respectively.

For `COC(=O)c1ccccc1C(=O)N1C[C@H](n2ncc(C(C)(C)O)n2)CC[C@H]1C` [Example 20, Methyl 2-((2R,5R)-5-(4-(2-hydroxypropan-2-yl)-2H-1,2,3-triazol-2-yl)-2-methylpiperidine-1-carbonyl)benzoate], the figures for the IC50 in assay [1] and in assay [2] were above 10 µM and 0.0246 µM, respectively.

As for `C[C@@H]1CC[C@@H](n2cc(C(C)(C)O)cn2)CN1C(=O)c1ccccc1OCC(F)(F)F` [Example 80, 2-{1-[(3R,6R)-6-Methy-1-{[2-(2,2,2-trifluoroethoxy)phenyl]carbonyl}piperidin-3-yl]-1H-pyrazol-4-yl}propan-2-ol], the IC50 was above 10 µM in assay [1] and 0.165 µM in assay [2].

Take `C[C@@H]1CC[C@@H](n2ncc(C(C)(C)O)n2)CN1C(=O)c1nccnc1-c1ccccn1` [Example 42, 2-(2-{(3R,6R)-6-methyl-1-[(3-pyridin-2-ylpyrazin-2-yl)carbonyl]piperidin-3-yl}-2H-1,2,3-triazol-4-yl)propan-2-ol]: the 50% inhibitory concentration (IC50) in assay [1] was above 10 µM; in assay [2] it was 0.622 µM.

For `COCc1ccccc1C(=O)N1C[C@H](n2ncc(C(C)(C)O)n2)CC[C@H]1C` [Example 56, 2-{2-[(3R,6R)-1-{[2-(methoxymethyl)phenyl]carbonyl}-6-methylpiperidin-3-yl]-2H-1,2,3-triazol-4-yl}propan-2-ol], the results for the IC50 in assay [1] and in assay [2] were above 10 µM and 0.308 µM, respectively.

Regarding `Cc1noc(-c2cc(F)ccc2C(=O)N2C[C@H](n3ncc(C(C)(C)O)n3)CC[C@H]2C)n1` [Example 41, 2-{2-[(3R,6R)-1-{[4-fluoro-2-(3-methyl-1,2,4-oxadiazol-5-yl)phenyl]carbonyl}-6-methylpiperidin-3-yl]-2H-1,2,3-triazol-4-yl}propan-2-ol], the IC50 in assay [1] was above 10 µM; in assay [2], 0.173 µM.

As to `C[C@@H]1CC[C@@H](n2cc(C(C)(C)O)cn2)CN1C(=O)c1ccc(F)cc1-n1nccn1` [Example 91, 2-{1-[(3R,6R)-1-{[4-Fluoro-2-(2H-1,2,3-triazol-2-yl)phenyl]carbonyl}-6-methylpiperidin-3-yl]-1H-pyrazol-4-yl}propan-2-ol], the IC50 in assay [1] is above 10 µM; in assay [2] it was 0.0188 µM.

For the compound `C[C@@H]1CC[C@@H](n2ncc(Br)n2)CN1C(=O)c1ccccc1-n1nccn1` [Example 29, (2-(2H-1,2,3-triazol-2-yl)phenyl)((2R,5R)-5-(4-bromo-2H-1,2,3-triazol-2-yl)-2-methylpiperidin-1-yl)methanone], the IC50 in assay [1] is above 10 µM; in assay [2], 0.362 µM.

As for `Cc1cccc(C(=O)N2C[C@H](n3ncc(C(C)(C)O)n3)CC[C@H]2C)c1-n1nccn1` [Example 46], the IC50 in assay [1] was above 10 µM; in assay [2] it was 0.0564 µM.

With `C[C@@H]1CC[C@@H](n2cc([C@H](O)C(F)(F)F)cn2)CN1C(=O)c1ccccc1-n1nccn1` [Example 103, (1S)-2,2,2-Trifluoro-1-{1-[(3R,6R)-6-methyl-1-{[2-(2H-1,2,3-triazol-2-yl)phenyl]carbonyl}piperidin-3-yl]-1H-pyrazol-4-yl}ethanol], the IC50 in assay [1] is above 10 µM; in assay [2] it was 0.102 µM.

Consider `CC(C)c1ccccc1C(=O)N1C[C@H](n2ncc(C(C)(C)O)n2)CC[C@H]1C` [Example 5, ((2R,5R)-5-(4-(2-Hydroxypropan-2-yl)-2H-1,2,3-triazol-2-yl)-2-methylpiperidin-1-yl)(2-isopropylphenyl)methanone], for which the figures for the IC50 in assay [1] and in assay [2] were above 10 µM and 0.0713 µM, respectively.

On to `C[C@@H]1CC[C@@H](n2ncc(C(C)(C)O)n2)CN1C(=O)c1ccccc1N1CCCC1` [Example 49, 2-(2-{(3R,6R)-6-methyl-1-[(2-pyrrolidin-1-ylphenyl)carbonyl]piperidin-3-yl}-2H-1,2,3-triazol-4-yl)propan-2-ol], for which the IC50 in assay [1] is 2.83 µM; in assay [2], 0.0291 µM.

Take `Cc1c(C(C)(C)O)cnn1[C@@H]1CC[C@@H](C)N(C(=O)c2ccccc2-n2nccn2)C1` [Example 108, 2-{5-Methyl-1-[(3R,6R)-6-methyl-1-{[2-(2H-1,2,3-triazol-2-yl)phenyl]carbonyl}piperidin-3-yl]-1H-pyrazol-4-yl}propan-2-ol]: the values for the IC50 in assay [1] and in assay [2] were 3.37 µM and 0.0732 µM, respectively.

Take `C[C@@H]1CC[C@@H](n2cc(C(C)(C)O)cn2)CN1C(=O)c1ccccc1C1CCC1` [Example 87, 2-(1-{(3R,6R)-1-[(2-Cyclobutylphenyl)carbonyl]-6-methylpiperidin-3-yl}-1H-pyrazol-4-yl)propan-2-ol]: the IC50 in assay [1] came out at 3.29 µM; in assay [2], 0.0493 µM.

Consider `C[C@@H]1CC[C@@H](n2cc(C(C)(C)O)cn2)CN1C(=O)c1ccccc1C1CC1` [Example 78, 2-(1-{(3R,6R)-1-[(2-Cyclopropylphenyl)carbonyl]-6-methylpiperidin-3-yl}-1H-pyrazol-4-yl)propan-2-ol], for which the IC50 in assay [1] is above 10 µM; in assay [2] it was 0.0255 µM.

With `C[C@@H]1CC[C@@H](n2cc(C(C)(C)O)cn2)CN1C(=O)c1ccccc1[C@H]1CC1(F)F` [Example 86, 2-{1-[(3R,6R)-1-({2-[(1R)-2,2-Difluorocyclopropyl]phenyl}carbonyl)-6-methylpiperidin-3-yl]-1H-pyrazol-4-yl}propan-2-ol], the IC50 in assay [1] was above 10 µM; in assay [2], 0.152 µM.

Regarding `C[C@@H]1CC[C@@H](n2cc(C(C)(C)O)cn2)CN1C(=O)c1nccnc1-n1cccn1` [Example 95, 2-{1-[(3R,6R)-6-Methyl-1-{[3-(1H-pyrazol-1-yl)pyrazin-2-yl]carbonyl}piperidin-3-yl]-1H-pyrazol-4-yl}propan-2-ol], the IC50 in assay [1] was above 10 µM; in assay [2], 0.271 µM.

Turning to `C[C@@H]1CC[C@@H](n2ncc(C(C)(C)O)n2)CN1C(=O)c1nccnc1-n1cccn1` [Example 43, 2-{2-[(3R,6R)-6-methyl-1-{[3-(1H-pyrazol-1-yl)pyrazin-2-yl]carbonyl}piperidin-3-yl]-2H-1,2,3-triazol-4-yl}propan-2-ol], the IC50 in assay [1] is above 10 µM; in assay [2], 0.109 µM.

Turning to `C[C@@H]1CC[C@@H](n2ncc(C(C)(C)O)n2)CN1C(=O)c1cccnc1OCC(F)F` [Example 13, (2-(2,2-Difluoroethoxy)pyridin-3-yl)((2R,5R)-5-(4-(2-hydroxypropan-2-yl)-2H-1,2,3-triazol-2-yl)-2-methylpiperidin-1-yl)methanone], the half-maximal inhibitory concentration (IC50) is above 10 µM in assay [1] and 0.0143 µM in assay [2].
